Laboratory results reported in US10849955B2, “Methods of treating pancreatic cancer using GPCR antagonists” (City of Hope, priority 2016, dated 2020).

Columns and labels:
Assay type in all cases: cell-based, human
EGFR = EGFR phosphorylation in PANC-1 cells, Western blot kinetic study; conditions: 10 nM agonist(s), pEGFR over total EGFR
Procedure: To prepare protein extracts, cells were pelleted by centrifugation and washed twice in PBS. The pellet was resuspended in lysis buffer (50 mM Tris, pH 8.0, 150 mM sodium chloride, 1% NP-40, supplemented Protease and Phosphatase Inhibitor Mini Tablets, Pierce) and incubated on a rotator for 30 min at 4° C. Subsequently, the cells were pelleted by centrifugation at 10,000 rpm for 20 min at 4° C. The protein lysate (supernatant) was used immediately or stored at −80° C. Membrane proteins were isolated using the Mem-Per Plus Membrane protein isolation kit (Thermo Scientific) per the manufacturer′ instructions. Briefly, adherent cells were scraped and centrifuged for 5 min at 300×g. The cell pellet was washed 2 times using Cell Wash solution and centrifuged for 5 min at 300×g. The cell pellet was permeabilized using Permeabilization Buffer and incubated at 4° C. for 10 mins on a rotator. […] Proteins were detected with Pierce ECL detection reagents (Pierce). […]
Cells were treated with 10 nM Dermorphin [Y(D-ALA)FGYPKC; Genscript], 10 nM (1R,1′S,3′R/1R,1′R,3′S)-L-054,264 (Tocris) individually and in combination for the indicated times. […] Blots were imaged on film and quantified using the Image Lab software (Biorad). ERK1/2 and EGFR phosphorylation at each time point was quantified and normalized by calculating the ratio of pERK1/2 over total ERK1/2 and pEGFR over total EGFR in each lane. […]

[1] = system: N-cadherin, MMP-9, vimentin and E-cadherin; assay: EMT marker mRNA levels in PANC-1 cells, RT-PCR; conditions: 10 nM dermorphin, 100 ng/mL CXCL12
Procedure: RNA was isolated using the RNAeasy Plus Kit (Qiagen) according to the manufacturer's protocol. For the EMT markers assay, cells were first treated with appropriate agonists where indicated for 24 hours followed by cell lysis and RNA extraction. cDNA was synthesized from 2 μg RNA using Bioline cDNA synthesis kit according to the manufacturer's protocol. The synthesized cDNAs were used as templates for PCRs with primers as described below. RT-PCR was performed using 5×RT Mastermix (Applied Biosystems). The reactions were analyzed on the CFX96 Real time instrument (Biorad). Themocycler conditions were 95° C. for 10 min for 1 cycle, 95° C. for 15 sec and 60° C. for 1 min for 50 cycles. GAPDH was used as an internal control. For GPCR assays, COS-7 cells were used as negative and MCF-7 cells as positive controls. For EMT marker assays, fold change was calculated as a ratio of treated to untreated control.

pERK1/2 = pERK1/2 localization in PANC-1 cells, confocal imaging; conditions: 3 or 30 min, 10 nM dermorphin, 10 nM L-054,264, 100 ng/ml CXCL12
Procedure: For pERK1/2 activation studies, after 24 hours, normal pancreatic and/or PANC-1 cells were treated with 1) 10 nM dermorphin; 2) 10 nM L-054,264; 3) 10 nM dermorphin plus 10 nM L-054,264; 4) 100 ng/ml CXCL12; and 5) 10 nM dermorphin plus 100 ng/ml CXCL12 for either 3 min or 30 min as indicated. PANC-1 NS, PANC-1/β arreatin2, PANC-1/SSTR2si and PANC-1/MORsi cells were treated with 10 nM dermorphin with 10 nM L-054,264 for 3 min. Following treatment, cells were washed and fixed with 4% (w/v) paraformaldehyde and 0.2% (w/v) glutaraldehyde for 30 min and inactivated with 25 mM glycine for 10 min. Cells were then washed in PBS and subsequently permeabilized on ice using 0.5% tween-20 in PBS for 20 min similarly as before (Smith et al., 2004). Cells were washed with PBS and blocked with 5% BSA in PBS for 10 min. Cells were incubated for 1 h at 37° C. with 2 μg/mL of primary antibody (anti-pERK1/2). Subsequently, cells were washed 3 times with 0.5% tween-20 in PBS for 5 min each and incubated with 2 μg/mL of Alexa Fluor 647 labeled secondary antibody in PB for 45 min. Following incubation with secondary antibody, cells were washed 3 times with 0.5% tween-20 in PBS. Cells were covered with mounting media DAPI (Vector Labs), mounted on slides, and imaged on a Zeiss LSM700 confocal microscope.

Substance	EGFR phosphorylation (EGFR)	mRNA levels of 4 markers (N-cadherin, E-cadherin, MMP-9, vimentin) [1]	pERK1/2 localization (pERK1/2)
(1R,1′S,3′R/1R,1′R,3′S)-L-054,264	induced modest EGFR phosphorylation		
CXCL12: selective CXCR4 agonist		did not have a significant effect	high levels of nuclear pERK1/2
